pIC50: −log10 of the molar value.
System: 885512-296-R-J2-PDC complex spheroid growth, % test/control
Experiment: Anticancer human tumor 885512-296-R-J2-PDC patient-derived breast carcinoma cell line growth inhibition [Asc]
Details: for pIC50: curve of first compound; for viability, T/C: stronger effect = lower value
Outline: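 Complex solid-tumor spheroids incorporating human endothelial and mesenchymal stem cells received single agents or combinations over half-log dilution ranges anchored to clinical Cmax.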
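Further: spheroids exposed to compounds for seven days.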
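Wherever viability, T/C is given: 100% = DMSO vehicle control wells.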

Compound: Cc1nc(N2CCC3(CC2)COC(C)C3N)c(CO)nc1Sc1ccnc(N)c1Cl (stereo not given) + CCN1C(C(=O)NC23CCC(C(=O)O)(CC2)CC3)C(c2cccc(Cl)c2F)C2(C(=O)Nc3cc(Cl)ccc32)C12CCCCC2
- pIC50 (second compound 0.03 µM): 6.44
- pIC50 (second compound 0.0949 µM): 6.87
- pIC50 (second compound 0.3 µM): 6.78
- pIC50 (second compound 0.949 µM): 7.22
- pIC50 (second compound 3 µM): > 8.02
- viability, T/C (second compound 0.03 µM, first compound 0.00949 µM): 90.6%
- viability, T/C (second compound 0.03 µM, first compound 0.03 µM): 79%
- viability, T/C (second compound 0.03 µM, first compound 0.0949 µM): 59.8%
- viability, T/C (second compound 0.03 µM, first compound 0.3 µM): 51.6%
- viability, T/C (second compound 0.03 µM, first compound 0.949 µM): 45.2%
- viability, T/C (second compound 0.03 µM, first compound 3 µM): 35.4%
- viability, T/C (second compound 0.0949 µM, first compound 0.00949 µM): 96.5%
- viability, T/C (second compound 0.0949 µM, first compound 0.03 µM): 78.9%
- viability, T/C (second compound 0.0949 µM, first compound 0.0949 µM): 51.2%
- viability, T/C (second compound 0.0949 µM, first compound 0.3 µM): 45.4%
- viability, T/C (second compound 0.0949 µM, first compound 0.949 µM): 41.3%
- viability, T/C (second compound 0.0949 µM, first compound 3 µM): 35.5%
- viability, T/C (second compound 0.3 µM, first compound 0.00949 µM): 82.3%
- viability, T/C (second compound 0.3 µM, first compound 0.03 µM): 60.2%
- viability, T/C (second compound 0.3 µM, first compound 0.0949 µM): 51.6%
- viability, T/C (second compound 0.3 µM, first compound 0.3 µM): 53.1%
- viability, T/C (second compound 0.3 µM, first compound 0.949 µM): 42.8%
- viability, T/C (second compound 0.3 µM, first compound 3 µM): 36.9%
- viability, T/C (second compound 0.949 µM, first compound 0.00949 µM): 59.3%
- viability, T/C (second compound 0.949 µM, first compound 0.03 µM): 51.1%
- viability, T/C (second compound 0.949 µM, first compound 0.0949 µM): 46.9%
- viability, T/C (second compound 0.949 µM, first compound 0.3 µM): 46.2%
- viability, T/C (second compound 0.949 µM, first compound 0.949 µM): 39.1%
- viability, T/C (second compound 0.949 µM, first compound 3 µM): 35.2%
- viability, T/C (second compound 3 µM, first compound 0.00949 µM): 39.3%
- viability, T/C (second compound 3 µM, first compound 0.03 µM): 35%
- viability, T/C (second compound 3 µM, first compound 0.0949 µM): 28.1%
- viability, T/C (second compound 3 µM, first compound 0.3 µM): 32%
- viability, T/C (second compound 3 µM, first compound 0.949 µM): 30.3%
- viability, T/C (second compound 3 µM, first compound 3 µM): 27.1%

Compound: COc1c(OCCCN2CCOCC2)ccc2c3n(c(=NC(=O)c4cnc(N)nc4)nc12)CCN3 + Cc1c(S(C)(=O)=O)c(-c2cc(F)cc(N3CCN(c4ccc(NS(=O)(=O)c5ccc(NC(CCN6CCC(C(=O)OCCCP(=O)(O)O)CC6)CSc6ccccc6)c(S(=O)(=O)C(F)(F)F)c5)cc4)CC3)c2)c(-c2ccc(Cl)cc2)n1C(C)C
- pIC50 (second compound 0.1 µM): 6.58
- pIC50 (second compound 0.316 µM): 6.59
- pIC50 (second compound 1 µM): 6.62
- pIC50 (second compound 3.16 µM): 6.65
- pIC50 (second compound 10 µM): 6.61
- viability, T/C (second compound 0.1 µM, first compound 0.00316 µM): 95.2%
- viability, T/C (second compound 0.1 µM, first compound 0.01 µM): 87.2%
- viability, T/C (second compound 0.1 µM, first compound 0.0316 µM): 95.9%
- viability, T/C (second compound 0.1 µM, first compound 0.1 µM): 69.3%
- viability, T/C (second compound 0.1 µM, first compound 0.316 µM): 47%
- viability, T/C (second compound 0.1 µM, first compound 1 µM): 4.94%
- viability, T/C (second compound 0.316 µM, first compound 0.00316 µM): 91.2%
- viability, T/C (second compound 0.316 µM, first compound 0.01 µM): 93.5%
- viability, T/C (second compound 0.316 µM, first compound 0.0316 µM): 79.3%
- viability, T/C (second compound 0.316 µM, first compound 0.1 µM): 79%
- viability, T/C (second compound 0.316 µM, first compound 0.316 µM): 43.2%
- viability, T/C (second compound 0.316 µM, first compound 1 µM): 5.3%
- viability, T/C (second compound 1 µM, first compound 0.00316 µM): 98.8%
- viability, T/C (second compound 1 µM, first compound 0.01 µM): 101%
- viability, T/C (second compound 1 µM, first compound 0.0316 µM): 84%
- viability, T/C (second compound 1 µM, first compound 0.1 µM): 70.2%
- viability, T/C (second compound 1 µM, first compound 0.316 µM): 43.9%
- viability, T/C (second compound 1 µM, first compound 1 µM): 5.16%
- viability, T/C (second compound 3.16 µM, first compound 0.00316 µM): 92.4%
- viability, T/C (second compound 3.16 µM, first compound 0.01 µM): 87.5%
- viability, T/C (second compound 3.16 µM, first compound 0.0316 µM): 77.5%
- viability, T/C (second compound 3.16 µM, first compound 0.1 µM): 73.5%
- viability, T/C (second compound 3.16 µM, first compound 0.316 µM): 40%
- viability, T/C (second compound 3.16 µM, first compound 1 µM): 5.34%
- viability, T/C (second compound 10 µM, first compound 0.00316 µM): 117%
- viability, T/C (second compound 10 µM, first compound 0.01 µM): 112%
- viability, T/C (second compound 10 µM, first compound 0.0316 µM): 96.2%
- viability, T/C (second compound 10 µM, first compound 0.1 µM): 81%
- viability, T/C (second compound 10 µM, first compound 0.316 µM): 40.7%
- viability, T/C (second compound 10 µM, first compound 1 µM): 4.02%

From PubChem BioAssay AID1963447 (Molecular Pharmacology Branch, DTP, NCI, 2024)
